Measurements reported in patent US7204974B2, “Stabilization of oxidation-sensitive or UV-sensitive active ingredients” (Beiersdorf AG, priority 2001, dated 2007).

Test: Polarity of lipids
Format: physicochemical
[1] = further lipids, polarity of ≧30 mN/m
[2] = lipids with a polarity of at most 30 mN/m

In the case of `CCCCC(CC)COC(=O)CCCCCC(C)C` (stereo not drawn) [2-Ethylhexyl Isononanoate], the “Polarity mN/m” value [1] is reported as 31.0 mN/m.
For `CCCCOC(=O)CCCCC(=O)OCCCC` [Cetiol B, Dibutyl Adipate], the “Polarity mN/m” value [2] was 14.3 mN/m.
For `CC(C)CCCCCCCOC(=O)C(C)(C)C` [DUB VCI 10, Isodecyl Neopentanoate], the “Polarity mN/m” value [2] was 29.9 mN/m.
For `CCCCC(CC)C(=O)OCCC(C)CC(C)(C)C` (stereo not drawn) [Dermol 98, 2-Ethylhexanoic acid 3,5,5-trimethyl ester], the “Polarity mN/m” value [2] was 26.2 mN/m.
With `CCCCCCCC(=O)OCCCCCCCC(C)C` [Dermol 108, Isodecyl Octanoate] the “Polarity mN/m” value [2] was 29.6 mN/m.
With `CC(C)CCCCCCCOC(=O)CC(C)CC(C)(C)C` (stereo not drawn) [Dermol 109, Isodecyl 3,5,5-Trimethyl Hexanoate] the “Polarity mN/m” value [2] was 29.1 mN/m.
With `CCCCCCCCCC(=O)OCCCC(C)C` [Dermol IHD, Isohexyl Decanoate] the “Polarity mN/m” value [2] was 29.7 mN/m.
In the case of `CCCCCCOCCCCCC` [Dihexyl ether, Dihexyl Ether], the “Polarity mN/m” value [2] is reported as 29.2 mN/m.
With `CCCCCCCC/C=C\CCCCCCCC(=O)OCCOCCOCC` [Ethoxydiglycol Oleate] the “Polarity mN/m” value [1] was 40.5 mN/m.
In the case of `CCCCCCCCCCC(CO)CCCCCCCC` (stereo not drawn) [Eutanol G, Octyldodecanol], the “Polarity mN/m” value [2] is reported as 24.8 mN/m.
In the case of `CCCCCCC(CCCC)C(=O)O` (stereo not drawn) [Isocarb 12, Butyl Octanoic Acid], the “Polarity mN/m” value [2] is reported as 22.1 mN/m.
For `CCCCCCCCCCCCCCCCCC(C)C` [Isoeicosane], the “Polarity mN/m” value [1] was 41.9 mN/m.
For `CCCCCCC(CO)CCCC` (stereo not drawn) [Isofol 12, Butyl Octanol], the “Polarity mN/m” value [2] was 17.4 mN/m.
With `CCCCCCCCC(CO)CCCCCC` (stereo not drawn) [Isofol 16, Hexyl Decanol] the “Polarity mN/m” value [2] was 24.3 mN/m.
For `CCCCCCCCCCCCCC(C)C` [Isohexadecane], the “Polarity mN/m” value [1] was 43.8 mN/m.
For `CCCCCCCCCCCCCCCCCC(=O)OC(C)C` [Isopropyl stearate, Isopropyl Stearate], the “Polarity mN/m” value [2] was 21.9 mN/m.
In the case of `CCCCCCCCCCCCCC(=O)OCC(CCCCCCCC)CCCCCCCCCC` (stereo not drawn) [M.O.D., Octyldodecyl Myristate], the “Polarity mN/m” value [2] is reported as 22.1 mN/m.
For `CCCCCCCCOC(=O)CCCCCCCCCCCCCCC(C)C` [Octyl Isostearate], the “Polarity mN/m” value [1] was 31.6 mN/m.
For `CCCCCCCCCCCCCCCCCCOC(=O)CCCCCC` [Tegosoft SH, Stearyl Heptanoate], the “Polarity mN/m” value [2] was 17.8 mN/m.
For `CC(CCOC(=O)CC(C)CC(C)(C)C)CC(C)(C)C` (stereo not drawn) [Trimethylhexyl Isononanoate], the “Polarity mN/m” value [1] was 31.1 mN/m.
For `CCCCCCCC(=O)OCC(COC(=O)CCCCCCC)OC(=O)CCCCCCC` [Trivent OCG, Tricaprylin], the “Polarity mN/m” value [2] was 20.2 mN/m.
With Cetearyl Isononanoate [Cetiol SN] the “Polarity mN/m” value [2] was 28.6 mN/m.
For Cyclomethicone [DC Fluid 345], the “Polarity mN/m” value [2] was 28.5 mN/m.
In the case of “Cyclopolydimethylsiloxane [Dow Corning Fluid 244]”, the “Polarity mN/m” value [2] is reported as 28.5 mN/m.
For Dioctylcyclohexane, the “Polarity mN/m” value [1] was 39.0 mN/m.
For Isocetyl Palmitate, the “Polarity mN/m” value [1] was 36.2 mN/m.
With “Isotridecyl 3,5,5-trimethylhexanonanoate [Dermol 139]” the “Polarity mN/m” value [2] was 24.5 mN/m.
With PEG 2 Diethylene Hexanoate [Dermol 488] the “Polarity mN/m” value [2] was 10.1 mN/m.
In the case of “Phenyl Trimethicone [Silicone oil VP 1120]”, the “Polarity mN/m” value [2] is reported as 22.7 mN/m.
With Triisostearin [Prisorine 2041 GTIS] the “Polarity mN/m” value [2] was 2.4 mN/m.
